Reference: patent US12509462B2, “3-(phenylsulfonyl)-[1,2,3]triazolo[1,5A]quinazolin-5(4H)-one derivatives” (BIOVERSYS AG, priority 2018, dated 2025)
Converted amounts (≈) assume the structure as drawn. Where two headings read alike, the source gives them in different places.

How the values were obtained:
[1] = system: Staphylococcus aureus MRSA strain (USA300 isolate); experiment: Hemolysis Assay II (exotoxin-mediated lysis of rabbit red blood cells by culture filtrate); type: cell-based; details: Erythrocyte; for minimal effective concentration / IC95: 18 h; for minimal effective concentration: absorbance <2× the average of the complete inhibition control, read-out: Hemolysis assay II MEC (minimal effective concentration); for IC95: read-out: Hemolysis assay II IC95; for IC50: 18 h culture in CA-MHB, rabbit red blood cells
MRSA = experiment: MIC by broth microdilution in CA-MHB (CLSI); details: Staphylococcus aureus, 18 h, read-out: MIC on MRSA
Protocol: Minimal inhibitory concentrations (MIC) were determined by broth microdilution method in cation-adjusted Mueller-Hinton (CA-MHB) broth according to the CLSI guideline. From an overnight culture plate, cells were resuspended in 0.9% (w/v) saline solution and bacterial inoculum was prepared in CA-MHB with 5×10^5 CFU/ml. Compounds were two-fold serially diluted in CA-MHB and 10 μL of this 10× concentrated samples were added into the 96-well plate. 90 μL of bacterial suspension was finally added to the compounds. Plates were covered and incubated without shaking at 35° C. for 18 hours. Every experiment contained an antibiotic as quality control. MIC was determined visually as the lowest concentration of a compound that prevents visible growth of the bacteria and the plates were scanned for documentation.

HepG2 = details: 48 h

| SMILES | minimal effective concentration [1] | IC95 [1] | IC50 [1] | MIC (MRSA) | LD50 HepG2 (HepG2; human) | LD50 HepG2 (HepG2; compounds 0.8-100 μM, SEAP readout) |
| --- | --- | --- | --- | --- | --- | --- |
| Cc1ccc(S(=O)(=O)c2nnn3c2[nH]c(=O)c2ccc(Br)cc23)c(C)c1 [Compound 38, 8-bromo-3-(2,4-dimethylphenyl)sulfonyl-4H-triazolo[1,5-a]quinazolin-5-one] | 4 µg/mL | 4.6 µg/mL (≈ 10.6 µM) | 1.4 µg/mL (≈ 3.23 µM) | 50 µM (≈ 21.7 µg/mL) | >=100 μM |  |
| COCCCOc1ccc2c(=O)[nH]c3c(S(=O)(=O)c4ccc(C)cc4C)nnn3c2c1 [Compound 40, 3-(2,4-dimethylphenyl)sulfonyl-8-(3-methoxypropoxy)-4H-triazolo[1,5-a]quinazolin-5-one] | 3 µg/mL | 4.4 µg/mL (≈ 9.94 µM) | 1.05 µg/mL (≈ 2.37 µM) | ≥ 100 µM | >=100 μM |  |
| Cc1ccc(S(=O)(=O)c2nnn3c2[nH]c(=O)c2ccc(OCCCC#N)cc23)c(C)c1 [Compound 41, 4-[[3-(2,4-dimethylphenyl)sulfonyl-5-oxo-4H-triazolo[1,5-a]quinazolin-8-yl]oxy]butanenitrile] | 2 µg/mL | 2.5 µg/mL (≈ 5.71 µM) | 0.65 µg/mL (≈ 1.49 µM) | ≥ 100 µM | >=100 μM |  |
| Cc1ccc(S(=O)(=O)c2nnn3c2[nH]c(=O)c2ccc(I)cc23)c(C)c1 [Compound 42, 3-(2,4-dimethylphenyl)sulfonyl-8-iodo-4H-triazolo[1,5-a]quinazolin-5-one] | 6 µg/mL | 10.1 µg/mL (≈ 20.9 µM) | 2.05 µg/mL (≈ 4.27 µM) | ≥ 100 µM | >=100 μM |  |
| COCCOc1ccc2c(=O)[nH]c3c(S(=O)(=O)c4ccc(C)cc4C)nnn3c2c1 [Compound 43, 3-(2,4-dimethylphenyl)sulfonyl-8-(2-methoxyethoxy)-4H-triazolo[1,5-a]quinazolin-5-one] | 2 µg/mL | 3.5 µg/mL (≈ 8.17 µM) | 0.8 µg/mL (≈ 1.87 µM) | ≥ 100 µM | >=100 μM |  |
| Cc1cc(Br)c(S(=O)(=O)c2nnn3c2[nH]c(=O)c2ccccc23)cc1C [Compound 44, 3-(2-bromo-4,5-dimethyl-phenyl)sulfonyl-4H-triazolo[1,5-a]quinazolin-5-one] | 6 µg/mL | 7.2 µg/mL (≈ 16.6 µM) | 1.85 µg/mL (≈ 4.27 µM) | ≥ 100 µM | >=100 μM |  |
| Cc1ccc(S(=O)(=O)c2nnn3c2[nH]c(=O)c2ccc(N4CCC4)cc23)c(C)c1 [Compound 45, 8-(azetidin-1-yl)-3-(2,4-dimethylphenyl)sulfonyl-4H-triazolo[1,5-a]quinazolin-5-one] | 6 µg/mL | 8.85 µg/mL (≈ 21.6 µM) | 1.7 µg/mL (≈ 4.15 µM) | ≥ 100 µM |  | >=100 μM |
| Cc1ccc(S(=O)(=O)c2nnn3c2[nH]c(=O)c2cc(O)ccc23)c(C)c1 [Compound 46, 3-(2,4-dimethylphenyl)sulfonyl-7-hydroxy-4H-triazolo[1,5-a]quinazolin-5-one] | 1 µg/mL | 1.4 µg/mL (≈ 3.78 µM) | 0.4 µg/mL (≈ 1.08 µM) | ≥ 100 µM | >=100 μM |  |
| COc1cccc2c(=O)[nH]c3c(S(=O)(=O)c4ccc(C)cc4C)nnn3c12 [Compound 47, 3-(2,4-dimethylphenyl)sulfonyl-9-methoxy-4H-triazolo[1,5-a]quinazolin-5-one] | 2 µg/mL | 1.95 µg/mL (≈ 5.07 µM) | 0.5 µg/mL (≈ 1.3 µM) | ≥ 100 µM | >=100 μM |  |
| Cc1ccc(S(=O)(=O)c2nnn3c2[nH]c(=O)c2ccc(NCCN4CCOCC4)cc23)c(C)c1 [Compound 48, 3-(2,4-dimethylphenyl)sulfonyl-8-(2-morpholinoethylamino)-4H-triazolo[1,5-a]quinazolin-5-one] | 8 µg/mL | 7 µg/mL (≈ 14.5 µM) | 1.6 µg/mL (≈ 3.32 µM) | 50 µM (≈ 24.1 µg/mL) | 50 µM |  |
| Cc1ccc(S(=O)(=O)c2nnn3c2[nH]c(=O)c2ccc(NC4CCOCC4)cc23)c(C)c1 [Compound 49, 3-(2,4-dimethylphenyl)sulfonyl-8-(tetrahydropyran-4-ylamino)-4H-triazolo[1,5-a]quinazolin-5-one] | 3 µg/mL | 4.5 µg/mL (≈ 9.92 µM) | 0.75 µg/mL (≈ 1.65 µM) | ≥ 100 µM | 50 µM |  |
| Cc1ccc(S(=O)(=O)c2nnn3c2[nH]c(=O)c2cccc(O)c23)c(C)c1 [Compound 50, 3-(2,4-dimethylphenyl)sulfonyl-9-hydroxy-4H-triazolo[1,5-a]quinazolin-5-one] | 3 µg/mL | 3.75 µg/mL (≈ 10.1 µM) | 1.05 µg/mL (≈ 2.83 µM) | ≥ 100 µM | >=100 μM |  |
| Cc1cc(C)c(S(=O)(=O)c2nnn3c2[nH]c(=O)c2ccccc23)c(Cl)c1 [Compound 51, 3-(2-chloro-4,6-dimethyl-phenyl)sulfonyl-4H-triazolo[1,5-a]quinazolin-5-one] | 6 µg/mL | 5.25 µg/mL (≈ 13.5 µM) | 1.9 µg/mL (≈ 4.89 µM) | ≥ 100 µM | >=100 μM |  |
| Cc1cc(C)c(S(=O)(=O)c2nnn3c2[nH]c(=O)c2ccccc23)c(Br)c1 [Compound 52, 3-(2-bromo-4,6-dimethyl-phenyl)sulfonyl-4H-triazolo[1,5-a]quinazolin-5-one] | 6 µg/mL | 6.1 µg/mL (≈ 14.1 µM) | 1.95 µg/mL (≈ 4.5 µM) | ≥ 100 µM | >=100 μM |  |
| Cc1ccc(S(=O)(=O)c2nnn3c2[nH]c(=O)c2ccc(OCCO)cc23)c(C)c1 [Compound 53, 3-(2,4-dimethylphenyl)sulfonyl-8-(2-hydroxyethoxy)-4H-triazolo[1,5-a]quinazolin-5-one] | 2 µg/mL | 2.2 µg/mL (≈ 5.31 µM) | 0.7 µg/mL (≈ 1.69 µM) | ≥ 100 µM | >=100 μM |  |
| COC(=O)CCCOc1ccc2c(=O)[nH]c3c(S(=O)(=O)c4ccc(C)cc4C)nnn3c2c1 [Compound 55, methyl 4-[[3-(2,4-dimethylphenyl)sulfonyl-5-oxo-4H-triazolo[1,5-a]quinazolin-8-yl]oxy]butanoate] | 3 µg/mL | 2.45 µg/mL (≈ 5.21 µM) | 1 µg/mL (≈ 2.13 µM) | ≥ 100 µM | >=100 μM |  |
| COCCOc1cc2c(cc1O)c(=O)[nH]c1c(S(=O)(=O)c3ccc(C)cc3C)nnn12 [Compound 58, 3-(2,4-dimethylphenyl)sulfonyl-7-hydroxy-8-(2-methoxyethoxy)-4H-triazolo[1,5-a]quinazolin-5-one] | 4 µg/mL | 4.1 µg/mL (≈ 9.22 µM) | 0.9 µg/mL (≈ 2.02 µM) | ≥ 100 µM | >=100 μM |  |
| COCCOCCOCCOc1ccc2c(=O)[nH]c3c(S(=O)(=O)c4ccc(C)cc4C)nnn3c2c1 [Compound 59, 3-(2,4-dimethylphenyl)sulfonyl-8-[2-[2-(2-methoxyethoxy)ethoxy]ethoxy]-4H-triazolo[1,5-a]quinazolin-5-one] | 8 µg/mL | 6.5 µg/mL (≈ 12.6 µM) | 2.6 µg/mL (≈ 5.03 µM) | ≥ 100 µM | >=100 μM |  |
| Cc1ccc(S(=O)(=O)c2nnn3c2[nH]c(=O)c2ccc(OCC4COC(C)(C)O4)cc23)c(C)c1 (centres unmarked) [Compound 60, 8-[(2,2-dimethyl-1,3-dioxolan-4-yl)methoxy]-3-(2,4-dimethylphenyl)sulfonyl-4H-triazolo[1,5-a]quinazolin-5-one] | 3 µg/mL | 3.05 µg/mL (≈ 6.29 µM) | 1 µg/mL (≈ 2.06 µM) | ≥ 100 µM | >=100 μM |  |
